# In patent US20240277715A1, “COMBINATION THERAPIES COMPRISING A METTL3 INHIBITOR AND A FURTHER ANTICANCER AGENT” (Storm Therapeutics Limited, priority 2021, published 2024):
# Read-outs that look alike come from different tables or passages of the source.
# Experiments:
# Kasumi1 AML cell line = experiment: AML cell viability, CellTiter-Glo combination matrix, Kasumi1; format: cell-based; conditions: for IC50: Homo sapiens, Kasumi 1, Kasumi1 cells
# Protocol: (§1) The sensitivity of AML cell lines to combinations of METTL3 inhibitor and standards of care was determined as described. Dose response curves of venetoclax were determined either alone or in the presence of different concentrations of METTL3 inhibitor that are known to be active in cells.
# (§2) Synergistic interactions occur when the IC50 value decreases in the presence of METTL3 inhibitor. […] Antagonistic interactions occur when the IC50 value increases in the presence of METTL3 inhibitor.
# (§3) 24 h before cell treatment, homogenize, stain with Trypan blue and count viable cells using CellOMeter Auto T4. Dilute cells in media at 400 000 cells/ml to ensure an exponential growth the day after.
# (§4) On treatment day, homogenize, stain with Trypan blue and count viable cells using CellOMeter Auto T4. Dilute to the proper cell seeding density according to Table 6 in cell media.
# (§5) • Dispense drug (see Table 7) and METTL3 inhibitor in semi-log dose-response matrix and DMSO in 384-well plates using D300e Nanodispenser (Tecan). • 6× compound solution preparation: add 40 μL of cell medium in compound-containing plates and homogenize using the ViaFlo device (Integra) • Dispense 30 μl of cell suspension per well in three replicate 384-well white Ultra-Low-Attachment plates (Sbio) using ViaFlow device (Integra) • Transfer 6 μL of the 6× compound solution in each 30 μL cell suspension-containing plate. • Incubate at 37° C. 5% CO2 for 3 to 5 days.
# (§6) • Add 35 μL CellTiter-Glo (Promega) in wells (vol/vol) using ViaFlo device (Integra). • Incubate at RT 10 min in the dark, with agitation the first minute, and read luminescence on the Ensight device (Perkin Elmer).
# (§7) Raw data were converted to % viability by normalization to DMSO controls. IC50 determination was performed using GraphPad Prism and fitting curves to the standard nonlinear regression four parameter equation (Y=Bottom+(Top-Bottom)/(1+(IC50/X)^HillSlope)) least squares method, and synergy was assessed by comparison of IC50 values of the standard of care in the presence or absence of different concentrations of METTL3 inhibitor (see FIGS. 12 to 19).
# MOLM13 AML cell line = experiment: AML cell viability, CellTiter-Glo combination matrix, MOLM13; format: cell-based; conditions: for interaction with venetoclax: MOLM13 AML cell line
# Protocol: as §1, §2, §3, §4, §5, §6, §7
# [1] = test system: FLT3-mutant MOLM-14 AML cell line; experiment: AML cell viability, CellTiter-Glo combination matrix, MOLM-14; format: cell-based
# Protocol: as §3, §4, §5, §6
# Raw data were converted to % viability by normalization to DMSO controls.
# [2] = test system: SKOV3 human ovarian cancer cells; experiment: Tumour killing assay (TKA), SKOV3 spheroid / PBMC co-culture; format: cell-based; conditions: STM3480 0.05 micromolar, FIG. 1 and 2
# Protocol: This experiment evaluates the effects of human donor Peripheral Blood Mononuclear Cells (PBMCs) to attack and kill fluorescently-labelled tumour cells in a co-culture assay. Briefly, test agents are incubated at different concentrations with SKOV3 human ovarian cancer cells in the presence or absence of human donor PBMCs and tumour growth is monitored continuously by real time imaging of the NucLight Red-labelled SKOV3 cells for several days.
# NucLight Red (Incucyte, Essen Biosciences)-transduced SK-OV-3 (SK-OV-3-NLR) cells were transferred into Ultra-low attachment 96 well plates with spontaneous spheroid formation occurring over 48 hours. Peripheral blood mononuclear cells (PBMC) were isolated from healthy single donor buffy coats by density separation. Prior to co-culture of SK-OV-3-NLR spheroids with PBMC, SK-OV-3-NLR spheroids were treated with 10 ng/ml of interferon gamma (IFNγ). All treatments, including STM3480 and Pembrolizumab, were added at the point of co-culture in a final total volume of 200 μl/per well. Assay plates were transferred into an IncuCyte S3 and images were collected every 2 hours for 7 days. Following experimental completion, an analysis definition was applied to quantify the Total NLR Integrated Intensity present on a per well basis. Changes in spheroid size were quantified by plotting Total NLR Integrated Intensity against time.
# AML = conditions: cited from earlier work
# [3] = Kasumi1, with increasing concentrations of STM3006
# [4] = Kasumi1, with increasing concentrations of STM3480
molecule,measurement,setting,value
Nc1ccn([C@@H]2O[C@H](CO)[C@@H](O)[C@@H]2O)c(=O)n1 [cytarabine],change in IC50 of the standard of care,Kasumi1 AML cell line; [3],No change
same,change in IC50 of the standard of care,Kasumi1 AML cell line; [4],No change
COc1cccc2c1C(=O)c1c(O)c3c(c(O)c1C2=O)C[C@@](O)(C(C)=O)C[C@@H]3O[C@H]1C[C@H](N)[C@H](O)[C@H](C)O1 [daunorubicin],change in IC50 of the standard of care,Kasumi1 AML cell line; [3],No change
same,change in IC50 of the standard of care,Kasumi1 AML cell line; [4],No change
Nc1ncn([C@@H]2O[C@H](CO)[C@@H](O)[C@H]2O)c(=O)n1 [5′-azacitidine],change in IC50 of the standard of care,Kasumi1 AML cell line; [3],No change
same,change in IC50 of the standard of care,Kasumi1 AML cell line; [4],No change
"CC1(C)CCC(CN2CCN(c3ccc(C(=O)NS(=O)(=O)c4ccc(NCC5CCOCC5)c([N+](=O)[O-])c4)c(Oc4cnc5[nH]ccc5c4)c3)CC2)=C(c2ccc(Cl)cc2)C1 [venetoclax, 4-{4-[(4′-chloro-5,5-dimethyl[3,4,5,6-tetrahydro[1,1′-biphenyl]]-2-yl)methyl]piperazin-1-yl}-N-(3-nitro-4-{[(oxan-4-yl)methyl]amino}benzene-1-sulfonyl)-2-[(1H-pyrrolo[2,3-b]pyridin-5-yl)oxy]benzamide]",IC50,"Kasumi1 AML cell line; in the presence of 316.2 nM STM3480, read-out: venetoclax IC50",50.9 nM
same,IC50,"Kasumi1 AML cell line; in the presence of 1000 nM STM3480, read-out: venetoclax IC50",22.2 nM
same,IC50,"Kasumi1 AML cell line; venetoclax alone, read-out: IC50 of venetoclax",238 nM
same,change in IC50 of the standard of care,Kasumi1 AML cell line; [3],decreasing
same,change in IC50 of the standard of care,Kasumi1 AML cell line; [4],decreasing
same,change in IC50 of the standard of care,"Kasumi1 AML cell line; Kasumi1, with increasing concentrations of STM3675",decreasing
same,change in IC50 of the standard of care,"MOLM13 AML cell line; MOLM13, with increasing concentrations of STM3006",decreasing
same,change in IC50 of the standard of care,"MOLM13 AML cell line; MOLM13, with increasing concentrations of STM3480",decreasing
same,change in IC50 of the standard of care,"MOLM13 AML cell line; MOLM13, with increasing concentrations of STM3675",decreasing
"O=C(NCc1ccc2cc(CNCC34CC(F)(C3)C4)[nH]c2c1)c1cc(=O)n2ccccc2n1 [STM3675, N-[(2-{[({3-fluorobicyclo[1.1.1]pentan-1-yl}methyl)amino]methyl}-1H-indol-6-yl)methyl]-4-oxo-4H-pyrido[1,2-a]pyrimidine-2-carboxamide]",interaction with venetoclax,Kasumi1 AML cell line; Kasumi1 AML cell line,synergistic
same,interaction with venetoclax,MOLM13 AML cell line,synergistic
"CC1(C)CCN(Cc2ccc3nc(Cn4cc(-c5cc(Br)cc6[nH]ncc56)nn4)cn3c2)CC1 [STM3006, 6-bromo-4-[1-({6-[(4,4-dimethylpiperidin-1-yl)methyl]imidazo[1,2-a]pyridin-2-yl}methyl)-1H-1,2,3-triazol-4-yl]-1H-indazole]",cell viability with increasing concentrations of METTL3 inhibitor,"Kasumi1 AML cell line; Kasumi1, combination with daunorubicin",decreasing viability
same,interaction with 5′-azacitidine,Kasumi1 AML cell line; Kasumi1 AML cell line,additive
same,interaction with cytarabine,Kasumi1 AML cell line; Kasumi1 AML cell line,additive
same,interaction with daunorubicin,Kasumi1 AML cell line; Kasumi1 AML cell line,additive
same,interaction with venetoclax,Kasumi1 AML cell line; Kasumi1 AML cell line,synergistic
same,interaction with quizartinib,[1]; FLT3-mutant MOLM-14 AML cell line,additive
same,cell viability with increasing concentrations of METTL3 inhibitor,"[1]; MOLM-14, combination with quizartinib",decreasing viability
same,interaction with venetoclax,MOLM13 AML cell line,synergistic
Pembrolizumab: anti-PD1 antibody [reference compound],tumour viability (normalized NucLight Red [NLR] fluorescence) against time,[2],greater decline in viable tumour cells
O=C(NCc1cn2cc(CNCC3CCCCC3)ccc2n1)c1cc(=O)n2ccccc2n1 [STM2457],AML growth,AML,reduction
same,differentiation and apoptosis,AML,increase
